In patent US20140212493A1, “Highly Bioavailable Composition Containing Eprosartan - Poloxamer Complex or 2-(7-Chloro-5-Methyl-4-Oxo-3-Phenyl-4,5-Dihydro-3H-Pyridazine (4,5-b)Indol-1-yl)-N,N-Dimethylacetamide - Poloxamer Complex” (BVM Holding Co., priority 2003, published 2014):
Counter-ions that a name gives are not always drawn.

How the values were obtained:
[1] = Dissolution of EPM and EPM-poloxamer complexes, USP apparatus II, SGF; type: physicochemical; details: equivalent to 400 mg dose, SGF without pepsin, 37° C., 25 rpm
Experimental: (§1) The dissolution rate of the association complex may be carried out using a suitable solvent such as 0.1 N HCl purified water, or simulated gastric fluid, as dissolution medium. The testing is conducted under conditions intended to simulate ingestions at about 37° C. and from about 25 to about 75 rpm. The dissolution may be tested using any method known in the art such as USP apparatus I (a basket apparatus) or USP apparatus II (a paddle apparatus) (USP 27/NF 22, 2004, <711>, page 2303). Samples of the solution are taken at preselected intervals such as at every fifteen minutes up to one hour.
Lutrol F-68, 1.0 gm, and EPM, 1.0 gm, are mixed in a jacketed vessel (KG5) heated to 53° C. while mixing for about 2 hrs. The resulting complex, in the form of free flowing granules, thus formed is allowed cool to room temperature and sieved through a 40 mesh screen. The dissolution of the complex equivalent to the 400 mg dose is determined using USP apparatus II, 900 ml of SGF (simulated gastric fluid without pepsin) as the dissolution medium at 37° C. and 25 rpm.
The dissolution of the complex equivalent to a 400 mg dose is determined using USP apparatus II, in SGF as the dissolution medium at 37° C. and 25 rpm.

[2] = Dissolution of NZ and NZ-poloxamer complex, USP apparatus II, purified water; type: physicochemical; details: equivalent to 20mg drug, 1000 ml purified water, 37° C., 75 rpm
Experimental: as §1
Lutrol F-68 and NZ, 250 mg are mixed in a jacketed vessel (KG 5) and heated to 53° C. while mixing for about 2 hours. The resulting complex thus formed is allowed to cool to room temperature and sieved through a 40 mesh screen. The dissolution of the complex equivalent to 20mg drug is determined using USP apparatus II, 1000 ml of purified water as the dissolution medium at 37° C. and 75 rpm.

Compound: CCCCc1ncc(/C=C(\Cc2cccs2)C(=O)O)n1Cc1ccc(C(=O)O)cc1 [EPM, eprosartan mesylate]
- % DISSOLVED ([1]; 15 minutes): 38.7%
- % DISSOLVED ([1]; 30 minutes): 51.9%
- % DISSOLVED ([1]; 45 minutes): 61.3%
- % DISSOLVED ([1]; 60 minutes): 61.7%

Compound: CN(C)C(=O)Cc1nn(-c2ccccc2)c(=O)c2c1c1ccc(Cl)cc1n2C [NZ, 2-(7-chloro-5-methyl-4-oxo-3-phenyl-4,5 dihydro-3H-pyridazino (4,5-b)-indol-1-yl)-N,N-dimethylacetamide]
- % DISSOLVED ([2]; 15 minutes): 0.65%
- % DISSOLVED ([2]; 30 minutes): 1.90%
- % DISSOLVED ([2]; 45 minutes): 2.53%
- % DISSOLVED ([2]; 60 minutes): 3.14%
